# Experimental data published in patent US20250144107A1, “USE OF A PIKFYVE INHIBITOR IN COMBINATION WITH IMMUNOTHERAPY” (The Regents of the University of Michigan, priority 2023, published 2025).
# What was measured:
# [1] = test system: subcutaneous tumors derived from OVA-expressing B16-F10 cells; assay: Adoptive cell therapy in subcutaneous B16-F10-OVA tumor model; type: in vivo, mice; conditions: combination with ACT
# Source text: FIG. 10A is an experimental timeline of the efficacy against subcutaneous ovalbumin-expressing B16-F10 (B16-F10-OVA) tumors treated with adoptive cell therapy (ACT) in combination with apilimod or ESK981.
# FIG. 10B is a series of 6 line graphs showing the growth of subcutaneous ovalbumin-expressing B16-F10 (B16-F10-OVA) tumors treated with adoptive cell therapy (ACT) in combination with apilimod or ESK981.
# FIG. 10C is a line graph of the survival of mice with subcutaneous ovalbumin-expressing B16-F10 (B16-F10-OVA) tumors treated with adoptive cell therapy (ACT) in combination with apilimod or ESK981.
# All experimental protocols were conducted after approval by the U-M Institutional Animal Care & Use Committee. […] KPC1361 cells were resuspended in PBS, 1:1 (v/v) mixed with Matrigel (BD Biosciences; catalog #: 354248), and orthotopically injected to the pancreases at 250,000 cells in a total volume of 50 μl per injection. B16-F10 cells were resuspended in PBS and injected subcutaneously to both flanks at 400,000 cells per injection. For ACT study, B16-F10-OVA cells were resuspended in PBS and injected subcutaneously to both flanks at 300,000 cells per injection. For lung metastasis experiment, B16-BL6 cells were resuspended in PBS, 1:1 (v/v) mixed with Matrigel and injected subcutaneously to both flanks at 400,000 cells per injection. Fifteen days after tumor cell inoculation, the primary tumors were removed surgically under anesthesia. Thirty-five days after removal of the primary tumors, lung tissues were extracted and fixed, and lung metastasis was quantified. C57BL/6 mice were acquired from The Jackson Laboratory. Measurement of tumor volume began 5-9 days post tumor cell implantation and was performed 2-3 times per week using calipers. Volume measurements of pancreatic tumors were also achieved with calipers, as reported See, e.g., Koikawa, K. et al., Cell 2021; 184(18):4753-4771. In brief, mice were subjected to anesthesia with 2-3% isoflurane, and the abdominal wall then became soft and loose. The mouse was next held with the left hand allowing for the palpation and assessment of the firm pancreatic tumor mass with the right hand. […] Volume (mm^3) of tumor was calculated using (W^2×L)/2, where W stood for minor tumor axis and L for the major. All mice were maintained in a pathogen-free condition, with a 12-hour light/dark cycle.
# For ICB treatment in KPC1361 pancreatic tumor-bearing mice, randomization was performed when tumors reached approximately 100 mm^3. For ACT and vaccine experiments, the mice were randomized when tumors reached approximately 35 mm^3. Anti-mouse PD-1 (clone RMP1-14) and its isotype control were purchased from BioXcell, administered intraperitoneally at 250 μg per mouse, biweekly. […]
# [2] = test system: NF-κB gene targets in cDCs; assay: RNA-seq and gene set enrichment in cDCs; type: cell-based, mice
# Protocol: FIG. 14B is a line graph of the enrichment of NF-κB target genes in DMSO or apilimod-treated, 3 hours, cDCs after 6 days of culture.
# FIG. 14C is a line graph of the enrichment of NF-κB target genes in DMSO or apilimod-treated, 8 hours, cDCs after 6 days of culture.
# FIG. 14H is a scatter plot of differentially expressed genes in apilimod versus DMSO-treated, 8 hours, cDCs after 6 days of culture.
# FIG. 21C is a line graph of MSigDB Hallmark “TNF_SIGNALING_VIA_NFκB” in apilimod vs. DMSO-treated, 3 hours, cDCs after 6 days of culture.
# FIG. 21D is a line graph of MSigDB Hallmark “TNF_SIGNALING_VIA_NFκB” in apilimod vs. DMSO-treated, 8 hours, cDCs after 6 days of culture.
# The Eukaryote Total RNA Nano kit (Agilent Technologies; catalog #: 5067-1511) was used to check the quality of RNAs on an Agilent bioanalyzer. A total of 800 ng RNA was then used for library preparation with the KAPA RNA Hyper+RiboErase HMR kit (Roche Diagnostics; Catalog #: 08098140702), following the instructions from the user manual. Briefly, the ribosomal RNA was removed by enzymatic digestion, and then the RNA was fragmented to around 200-300 bp with heat in fragmentation buffer. Synthesis of cDNA was conducted with reverse transcriptase and random primer, and then the second strand was synthesized to generate double-stranded cDNA. Following the repair of the DNA ends, NEB adapter was ligated, and the DNA are amplified with the KAPA HiFi HotStart mix and NEB dual barcode. Quality of the library was checked using the bioanalyzer with the Agilent DNA 1000 Kit (Agilent Technologies; catalog #: 5067-1504), and the sequencing was performed using NovaSeq 6000. The RNA-sequencing data was analyzed with packages limma and edgeR See, e.g., Ritchie, M. E. et al., Nucleic Acids Res. 2015; 43(7):47; Phipson, B. et al., Ann. Appl. Stat. 2016; 10(2):946-963; Robinson, M. D. et al., Bioinformatics 2010; 26(1):139-40. […] The analyzed hallmark pathways were collected from the Molecular Signatures Database See, e.g., Subramanian, A. et al., Proc. Natl. Acad. Sci. USA 2005; 102(43):15545-15550; Liberzon, A. et al., Cell Syst. […]
SMILES,efficacy of the ACT [1],survival of the animals [1],"enrichment of TNF_SIGNALING_VIA_NFκB gene set ([2]; 3 and 8 hours, vs DMSO)","Sqstm1 expression ([2]; 8 hours, vs DMSO)",enrichment of direct NF-κB gene targets ([2]; early time points)
"CC(C)Cn1c2ccc(Nc3ncccn3)cc2c2c3c(c4c(c21)CCc1nn(C)cc1-4)C(=O)NC3 [ESK981, 13-isobutyl-4-methyl-10-(pyrimidin-2-ylamino)-1,2,4,7,8,13-hexahydro-6H-indazolo[5,4-a]pyrrolo[3,4-c]carbazol-6-one]",strikingly enhanced,significantly extending survival,,,
"Cc1cccc(/C=N/Nc2cc(N3CCOCC3)nc(OCCc3ccccn3)n2)c1 [apilimod, N-[(E)-(3-methylphenyl)methylideneamino]-6-morpholin-4-yl-2-(2-pyridin-2-ylethoxy)pyrimidin-4-amine]",strikingly enhanced,significantly extending survival,positive enrichment,most significantly upregulated gene,positively enriched
